What was measured:
(His)6-SOX11-DBD protein = target: T1, (His)6-SOX11-DBD protein (Homo sapiens, UniProt P35716); test: Surface Plasmon Resonance (SPR) assay; assay type: binding; settings: immobilized recombinant (His)6-SOX11-DBD, 25° C., compounds 5-40 μM, mean of three experiments
T1 construct: Recombinant (His)6-SOX11-DBD protein was immobilized
T1 sequence (P35716 49-117 limits assumed): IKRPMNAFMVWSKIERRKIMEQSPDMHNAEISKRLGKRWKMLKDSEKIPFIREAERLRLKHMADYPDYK
Experimental: Surface Plasmon Resonance (SPR) Assay
Recombinant (His)6-SOX11-DBD protein was immobilized at a flow rate of 10 μl/min for 180 seconds to the right channel of a gold-coated SCR NiHC200M sensor chip (XanTec bioanalytics) placed in a Reichert 2SPR instrument (Reichert Technologies). The left channel, without immobilized protein, was used as a reference. […] Compounds flowed sequentially from the left to the right channel over the prepared sensor chip surface. 120 seconds association phase with each compound concentration was followed by 300 seconds dissociation phase with the assay buffer alone. The ka, kd, and KD values were determined from the sensograms for at least 3 concentrations of each compound by curve fitting the data using Reichert's TraceDrawer software. The mean KD value for each compound was calculated from three separate experiments.

Jeko-1 (SOX11+) = test: Cell viability assay (CellTiter-Blue resazurin reduction); assay type: cell-based; settings: JeKo-1 cells; for IC50: 0-40 μM; for viability at 20 µM: 20 μM compound, normalized to 0.2% DMSO
Experimental: Cell viability was determined by a fluorometric resazurin reduction method (CellTiter-Blue; Promega, Madison, Wis.) following the manufacturer's instructions. […] Cells were incubated for 72 hours. After incubation, 20 μl CellTiter-Blue Cell was added to each well and incubated for another 2 hours. […] The number of viable cells in each treated well was calculated, based on the linear least squares regression of the standard curve (OD vs. cell concentration). The viability of cells treated with compounds was normalized to the viability of cells treated with 0.2% Dimethyl sulfoxide (DMSO). Cell counts were confirmed with Trypan Blue Exclusion Assay on the Countess automated cell counter (Invitrogen) according to the manufacturer's specifications. The average and mean standard deviation were calculated from three separate experiments. IC50 values were calculated using the GraphPad Prism (version 4.00) based on a sigmoidal dose-response equation.

Structure (SMILES)	Kd ((His)6-SOX11-DBD protein) [µM]	IC50 (Jeko-1 (SOX11+); Homo sapiens, JeKo-1, 72 h) [µM]	viability at 20 µM (Jeko-1 (SOX11+); Homo sapiens, JeKo-1, 72 h) [%]	viability at 20 µM (Jeko-1 (SOX11+); Homo sapiens, 72 hours) [%]	IC50 (Jeko-1 (SOX11+); Homo sapiens, 72 hours) [µM]	IC50 (Jeko-1 (SOX11+); 72 hours) [µM]
CC1Sc2ccc(C(=O)Nc3ccc(S(=O)(=O)N4CCOCC4)cc3)cc2NC1=O (stereo not shown)	137	11	18.9			
CC1Sc2ccc(C(=O)Nc3ccc(S(=O)(=O)Nc4cccc(C(F)(F)F)c4)cc3)cc2NC1=O (stereo not shown)	5.78	21	9.74			
CC1Sc2ccc(C(=O)Nc3cccc(S(=O)(=O)NC4CCN(C(=O)OC(C)(C)C)CC4)c3)cc2NC1=O (stereo not shown)	142	15	13			
CC1Sc2ccc(C(=O)Nc3cccc(S(=O)(=O)N4CCN(C(=O)OC(C)(C)C)CC4)c3)cc2NC1=O (stereo not shown)	1.76	18	36.4			
CC1Sc2ccc(C(=O)Nc3cccc(S(=O)(=O)NC4CCNCC4)c3)cc2NC1=O (stereo not shown)	54.6	> 20	96.6			
CC1Sc2ccc(C(=O)Nc3cccc(S(=O)(=O)N4CCNCC4)c3)cc2NC1=O (stereo not shown)	131	> 20	114			
O=C(Nc1cccc(S(=O)(=O)N2CCCCC2)c1)c1ccc2c(c1)CCCS2	3.01		54.2			
Cc1ccc(NC(=O)c2ccc3c(c2)N(C)C(=O)CS3)cc1S(=O)(=O)N1CCCC1	35.9		90.9			
Cc1ccc(NC(=O)c2ccc3c(c2)N(C)C(=O)CS3)cc1S(=O)(=O)N1CCCCC1	8.89		3.42			
O=C(Nc1ccc(S(=O)(=O)N2CCCCC2)c(Cl)c1)c1ccc2c(c1)CCCS2	17.6		35.1			
CN1C(=O)CSc2ccc(C(=O)Nc3ccc(S(=O)(=O)N4CCCC4)c(Cl)c3)cc21	27.4		16			
CN1C(=O)CSc2ccc(C(=O)Nc3ccc(S(=O)(=O)N4CCCCC4)c(Cl)c3)cc21	2.75		4.13			
O=C(Nc1ccc(S(=O)(=O)N2CCCC2)c(Cl)c1)c1ccc2c(c1)CCCS2	3.86		1.26			
CC1Sc2ccc(C(=O)Nc3ccc(S(=O)(=O)N4CCCC4)c(Cl)c3)cc2N(C)C1=O (stereo not shown)	20.4		8.44			
CC1Sc2ccc(C(=O)Nc3ccc(S(=O)(=O)N4CCCC4)c(Cl)c3)cc2NC1=O (stereo not shown)	13.8		8.93			
CC1Sc2ccc(C(=O)Nc3ccc(Cl)c(S(=O)(=O)N(C)C(C)C)c3)cc2NC1=O (stereo not shown)	13.4		12			
Cc1ccccc1COc1ccc(NC(=O)c2ccc3c(c2)NC(=O)C(C)S3)cc1 (stereo not shown)	7.91		99.2			
CC1Sc2ccc(C(=O)Nc3ccc(Cl)c(S(=O)(=O)N4CCCC4)c3)cc2NC1=O (stereo not shown)	23.9		1.39			
c1ccc(COc2ccc(CNc3ccc4cnccc4c3)cc2)cc1	33.7		1.2			
c1ccc(COc2cccc(CNc3ccc4cncnc4c3)c2)cc1	24.2		1.4			
c1ccc(COc2ccc(CNc3ccc4cncnc4c3)cc2)cc1	5.2		1.09			
c1ccc(COc2cccc(CNc3ccc4cnccc4c3)c2)cc1	47.8		1.12			
CC1Sc2ccc(C(=O)Nc3ccc(CN4CCCCC4)cc3)cc2NC1=O (stereo not shown)	3.43		108			
CC1Sc2ccc(C(=O)Nc3ccc(CN4CCCC4)cc3)cc2NC1=O (stereo not shown)	71.5		104			
CC1Sc2ccc(C(=O)Nc3ccc(CN(C)C(C)C)cc3)cc2NC1=O (stereo not shown)	1.17		105			
Cc1cccc(NCc2ccc(NC(=O)c3ccc4c(c3)NC(=O)C(C)S4)cc2)c1 (stereo not shown)	8.16		79			
CC1Sc2ccc(C(=O)Nc3cccc(CNc4ccc(OS(=O)(=O)F)cc4)c3)cc2NC1=O (stereo not shown)	3.53			4.81	10	
CC1Sc2ccc(C(=O)Nc3cccc(CNc4cccc(S(=O)(=O)F)c4)c3)cc2NC1=O (stereo not shown)	1.9			44.3	19	
CC1Sc2ccc(C(=O)Nc3ccc(CNc4cccc(S(=O)(=O)F)c4)cc3)cc2NC1=O (stereo not shown)	1.65					16
CCCN1C(=O)CSc2ccc(C(=O)Nc3ccc(S(=O)(=O)N4CCCCC4)cc3)cc21	5.87	17	39.9			

The next lines start with results.

Kd ((His)6-SOX11-DBD protein) [µM]	Structure (SMILES)	IC50 (Jeko-1 (SOX11+); Homo sapiens, JeKo-1, 72 h) [µM]	viability at 20 µM (Jeko-1 (SOX11+); Homo sapiens, JeKo-1, 72 h) [%]	viability at 20 µM (Jeko-1 (SOX11+); Homo sapiens, 72 hours) [%]	IC50 (Jeko-1 (SOX11+); Homo sapiens, 72 hours) [µM]	IC50 (Jeko-1 (SOX11+); 72 hours) [µM]
70	O=C(Nc1ccc(S(=O)(=O)Nc2ccccc2)cc1)c1ccc2ncccc2c1	< 20	26			
134	O=C(Nc1ccc(S(=O)(=O)Nc2ccccc2)cc1)c1ccc2cnccc2c1	15	6.45			
226	O=C(Nc1ccc(S(=O)(=O)Nc2ccccc2)cc1)c1ccc2cncnc2c1	> 20	100			
48.4	O=C(Nc1ccc(S(=O)(=O)Nc2ccccc2)cc1)c1ccc2cn[nH]c2c1	10	17.2			
21.2	Cc1nc2cc(C(=O)Nc3ccc(S(=O)(=O)Nc4ccccc4)cc3)ccc2s1	12	16.6			
230	O=C(Nc1ccc(S(=O)(=O)Nc2ccccc2)cc1)c1ccc2nc[nH]c2c1	> 20	93.6			
1.98	O=C(Nc1cccc(S(=O)(=O)N2CCCC2)c1)c1ccc2c(c1)CCCS2		27.1			
13.5	O=C(Nc1ccc(CNc2ccccc2)cc1)c1ccc2c(c1)CCCS2		51.9			
7.34	O=C(Nc1cccc(CNc2ccccc2)c1)c1ccc2c(c1)CCCS2		85.3			
346	CC1Sc2ccc(C(=O)Nc3cccc(S(=O)(=O)N4CCCC4)c3)cc2N(C)C1=O (stereo not shown)		13.9			
5.41	Cc1ccccc1COc1cccc(NC(=O)c2ccc3c(c2)NC(=O)C(C)S3)c1 (stereo not shown)		110			
13.7	CC1Sc2ccc(C(=O)Nc3cccc(OCc4ccccc4)c3)cc2NC1=O (stereo not shown)		107			
3.62	CC1Sc2ccc(C(=O)Nc3ccc(CN(C)c4ccccc4)cc3)cc2NC1=O (stereo not shown)		84.9			
0.258	CC1Sc2ccc(C(=O)Nc3ccc(CNc4ccccc4)cc3)cc2NC1=O (stereo not shown)		108			
31.9	C[C@@H]1Sc2ccc(C(=O)Nc3ccc(S(=O)(=O)Nc4ccccc4)cc3)cc2NC1=O	12.5	12.8			
6.46	O=C(CCc1c[nH]cn1)Nc1cccc(C(=O)Nc2ccc(S(=O)(=O)Nc3ccccc3)cc2)c1	> 20	90.7			
0.805	Nc1ccccc1CC(=O)Nc1cccc(C(=O)Nc2ccc(S(=O)(=O)Nc3ccccc3)cc2)c1	11	9.92			
9.61	O=C(Nc1cccc(OCc2ccccc2)c1)c1ccc2snnc2c1	> 20	98.1			
1.65	O=C(Nc1ccc(OCc2ccccc2)cc1)c1ccc2snnc2c1	> 20	93.6			
8.33	CN(c1ccccc1)S(=O)(=O)c1cccc(NC(=O)c2ccc3snnc3c2)c1	10	10.6			
2.65	CCN(c1ccccc1)S(=O)(=O)c1cccc(NC(=O)c2ccc3snnc3c2)c1	8.5	4.86			
4.07	CN(c1ccccc1)S(=O)(=O)c1ccc(NC(=O)c2ccc3nncn3c2)cc1	> 20	126			
